Read-outs that look alike come from different tables or passages of the source.
Conditions: Slurry

Measured: XRPD result after slurry

Source text: The sample was then centrifuged, while still warm, and the mother liquor was decanted. The isolated solids were air-dried and analyzed by XRPD.

COc1cc(CCN)c(OC)cc1Br.O=C(O)C(O)C(O)C(=O)O [2C-B tartrate, 4-bromo-2,5-dimethoxyphenethylamine (2C-B) tartrate]
Tartrate (Form 1): ACN, 50° C., 9 days | DMF/acetone 50/50, RT | EtOAc, 50° C., 9 days | EtOH, 50° C., 9 days | EtOH/H2O 50/50, aw = 0.89, RT | EtOH/H2O 80/20, aw = 0.70, RT | EtOH/H2O 90/10, aw = 0.49, RT | IPA, 50° C., 9 days | IPA/H2O 70/30, aw = 0.94, RT | MEK, 50° C., 9 days | MeOH, RT | MeOH/H2O 95/5, aw = 0.16, RT | THF/H2O 50/50, aw = 1.00, 5° C. | acetone/H2O 50/50, aw = 0.91, 5° C.
Tartrate (Form 1) +: EtOAc/DMSO 71/29, RT
